Results published in publication doi:10.1101/2024.05.16.594348v1 (bioRxiv, 2024).
Where a SMILES comes first, the peptide text is derived from it. [ ]: non-standard residue; d: D form. βAla = NCCC(=O)O

Experiments:
hMSCs [1] = assay: Peptide degradation in media on top of cells; type: in vitro ADME, human; settings: 24 h, LCMS
[2] = Peptide degradation in cell-free conditioned media; type: in vitro ADME, human; settings: initial peptide library, 24 h, LCMS, text to Fig. 2B
hUVECs [3] = assay: Peptide degradation in media on top of cells; type: in vitro ADME, human; settings: 24 h, LCMS
hMSCs [4] = assay: Cell spreading of hMSCs in peptide-crosslinked PEG hydrogels; type: cell-based, human; settings: PEG hydrogels containing hMSCs or hUVECs at 20 million cells/mL, up to Day 7
[5] = Peptide degradation in cell-free conditioned media; type: in vitro ADME, human; settings: initial peptide library, 24 h, LCMS, text to Fig. 2B; remark: listed apart in the source
hMSCs [6] = assay: Peptide degradation in Cells condition with MMP-14 inhibitor, hMSCs; type: in vitro ADME, human; settings: 50 μM peptide, MMP-14 inhibitor NSC 405020, 24 h, LCMS; text to Fig. 4
hUVECs [7] = assay: Viability of hUVECs in peptide-crosslinked PEG hydrogels; type: cell-based, human
[8] = individually synthesized peptides, 50 μM, text to Fig. 4
[9] = initial peptide library, text to Fig. 2B

Row | degradation in the cells condition, hMSCs (hMSCs [1]; [8]) [%] | degradation in the cells condition, hMSCs (hMSCs [1]; [9]) [%] | degradation in media condition, hUVEC [2] | degradation in the cells condition, hUVECs (hUVECs [3]; [8]) [%] | degradation in the cells condition, hUVECs (hUVECs [3]; [9]) [%] | degradation in media condition, hMSC [5] | degradation in the Cells + Inhibitor condition, hMSCs (hMSCs [6]) [%] | Molecule | cytotoxicity of hydrogels crosslinked by the peptide (hMSCs [4]) | hUVEC cell number after seven days in crosslinked gels, difference (hUVECs [7]; PanMMP compared with the KLVAD peptides, DNA quantification, Fig. 6D) | hUVEC metabolic activity after seven days in crosslinked gels (hUVECs [7]; compared with the KLVAD peptides, alamarBlue, Fig. 6C)
1 | 22 | 30 | less than 3% | 4 | 8 | less than 3% |  | KLVADNYASAE | cytotoxic |  | 
2 | 54 |  |  | 16 |  |  |  | CSCC[C@H](NC(=O)[C@H](CC(C)C)NC(=O)[C@H](CC(=O)O)NC(=O)[C@H](C)NC(=O)[C@@H](NC(=O)[C@H](CC(C)C)NC(=O)[C@H](CCCCN)NC(=O)CCNC(C)=O)C(C)C)C(=O)N[C@@H](C)C(=O)N[C@@H](CO)C(=O)N[C@@H](C)C(=O)N[C@@H](CCC(=O)O)C(=O)NCCC(N)=O [KLVAD-LM] (Ac-[βAla]KLVADLMASAE[βAla]-NH2) |  |  | 
3 | 65 | 61 |  |  | 31 |  | 22 | GPQGIWGQ [PanMMP, reference compound] |  | not significant | higher metabolic activity
